In one data set the test system is P388 cells. Description: Antitumor activity: increase in life survival of mice transplanted i.p. with P388 cells. The note with it: for ILS (%): intraperitoneally once a day for five days, P388 in CDF₁ mice. It is filed as in vivo, CDF₁ mice. How it is done:
CDF₁ mice (male, 5 weeks old) were intraperitoneally transplanted with P388 cells at a dose of 1 x 10⁶ cells/mouse.
From the next day of the transplantation, a test compound of the invention in the form of 0.5% carboxymethylcellulose suspension was intraperitoneally administered once a day for consecutive five days. Percent increase in life survival was determined: [formula]

The subject of a further data set is platelet aggregation. Description: Platelet aggregation-inhibitory activity in platelet-rich plasma. The note with it: Oryctolagus cuniculus. In kind it is cell-based, rabbit. How it is done:
From rabbit carotid […] was drawn blood (9 volumes) by means of a syringe containing 3.8% aqueous sodium citrate (1 volume). The blood was centrifuged to obtain platelet-rich plasma (PRP: 550,000/µl). Platelet aggregation-inhibitory activity of a compound of the invention was measure using as an aggregation-inducing agent arachidonic acid or collagen. 50%-inhibition concentration (IC₅₀) against the platelet aggregation caused by arachidonic acid (80 µM) and collagen (30 µg/ml) is shown in Table 2 for representative compounds according to the invention.

Data set [1] in a line: Acute toxicity test, oral administration. The note with it: mouse, in vivo, ICR male mice (7 weeks old), read-out: LD₅₀. From the text:
An acute toxicity test was run with ICR male mice (7 weeks old) by an oral administration.

Setting [2] is: aggregation caused by arachidonic acid (80 µM), rabbit PRP, read-out: 50%-Inhibition concentration, Arachidonic acid.
Setting [3] is: aggregation caused by collagen (30 µg/ml), rabbit PRP, read-out: 50%-Inhibition concentration, Collagen.

Results on 4 compounds are retold here after patent publication EP0222155A1, “5-Fluorouracil derivatives” (TERUMO KABUSHIKI KAISHA trading as TERUMO CORPORATION, priority 1985, dated 1987).

Read-outs that look alike come from different tables or passages of the source. Where only a bound is given, the exact number is not on record here.

As to `O=c1[nH]cc(F)c(=O)[nH]1` [Example 5-FU, 5-Fluorouracil], the figures for the “ILS (%)” value in the data set on P388 cells (Dose 10 mg/kg/day), with P388 cells (Dose 30 mg/kg/day) and in the data set on P388 cells (Dose 40 mg/kg/day) were 65.2%, 27.4% and -24.8%, respectively. Further, in the data set with P388 cells (Dose 100 mg/kg/day as stated in the text), the “survival days compared with control mice (in words)” value is on record as “survival days shorter than those for control mice”. In addition, the IC50 in the data set with platelet aggregation (read-out: 50%-Inhibition concentration, Arachidonic acid) is above 1000 µM; in the data set with platelet aggregation (read-out: 50%-Inhibition concentration, Collagen), above 1000 µM. Moreover, the LD50 in data set [1] stood at 309 mg/kg.

As for `CC/C=C\C/C=C\C/C=C\CCCCCCCC(=O)OC(C)n1cc(F)c(=O)[nH]c1=O` (stereo not drawn) [Example 1, 1-(α-9,12,15-octadecatrienoyloxy-α-methyl)-methyl-5-fluorouracil], the “ILS (%)” value with P388 cells (Dose 10 mg/kg/day) was 24.6%; in the data set with P388 cells (Dose 30 mg/kg/day), 46.8%; in the data set with P388 cells (Dose 100 mg/kg/day), 80.5%. In addition, the values for the IC50 in the data set with platelet aggregation (setting [2]) and in the data set with platelet aggregation (setting [3]) were 65 µM and 340 µM, respectively.

As to `CC/C=C\C/C=C\C/C=C\C/C=C\C/C=C\CCCC(=O)OC(C)n1cc(F)c(=O)[nH]c1=O` (stereo not drawn) [Example 3, 1-(α-5,8,11,14,17-eicosapentaenoyloxy-α-methyl)methyl-5-fluorouracil], the “ILS (%)” value came to 26.8% in the data set with P388 cells (Dose 10 mg/kg/day), 49.2% in the data set on P388 cells (Dose 30 mg/kg/day) and 82.1% with P388 cells (Dose 100 mg/kg/day). Moreover, the values for the IC50 in the data set with platelet aggregation (setting [2]) and with platelet aggregation (setting [3]) were 32 µM and 140 µM, respectively.

Consider `CC/C=C\C/C=C\C/C=C\CCCCCCCC(=O)OC(CC)n1cc(F)c(=O)[nH]c1=O` (stereo not drawn) [Example 2, 1-(α-9,12,15-octadecatrienoyloxy-α-ethyl)methyl-5-fluorouracil], for which the “ILS (%)” value with P388 cells (Dose 10 mg/kg/day) is given as 27.2%; with P388 cells (Dose 30 mg/kg/day) it was 39.7%; with P388 cells (Dose 100 mg/kg/day), 73.8%. The IC50 with platelet aggregation (setting [2]) was 57 µM; with platelet aggregation (setting [3]), 530 µM.
